Results taken from ChEMBL document CHEMBL2073815, “Induction of hepatic phase II drug-metabolizing enzymes by 1,7-phenanthroline in rats is accompanied by induction of MRP3” (Drug Metab Dispos, 2003).

Columns and labels:
Assay type in all cases: functional, organism-based
[1] = biological target: T1, ATP-binding cassette sub-family C member 3 (Rattus norvegicus, UniProt O88563); assay: TP_TRANSPORTER: quantitative PCR in vivo, […] of male Sprague-Dawley rat
[2] = biological target: T2, Solute carrier organic anion transporter family member 1A4 (Rattus norvegicus, UniProt O35913); assay: (§1) TP_TRANSPORTER: quantitative PCR in vivo, liver of male Sprague-Dawley rat
T2 sequence (O35913 whole entry): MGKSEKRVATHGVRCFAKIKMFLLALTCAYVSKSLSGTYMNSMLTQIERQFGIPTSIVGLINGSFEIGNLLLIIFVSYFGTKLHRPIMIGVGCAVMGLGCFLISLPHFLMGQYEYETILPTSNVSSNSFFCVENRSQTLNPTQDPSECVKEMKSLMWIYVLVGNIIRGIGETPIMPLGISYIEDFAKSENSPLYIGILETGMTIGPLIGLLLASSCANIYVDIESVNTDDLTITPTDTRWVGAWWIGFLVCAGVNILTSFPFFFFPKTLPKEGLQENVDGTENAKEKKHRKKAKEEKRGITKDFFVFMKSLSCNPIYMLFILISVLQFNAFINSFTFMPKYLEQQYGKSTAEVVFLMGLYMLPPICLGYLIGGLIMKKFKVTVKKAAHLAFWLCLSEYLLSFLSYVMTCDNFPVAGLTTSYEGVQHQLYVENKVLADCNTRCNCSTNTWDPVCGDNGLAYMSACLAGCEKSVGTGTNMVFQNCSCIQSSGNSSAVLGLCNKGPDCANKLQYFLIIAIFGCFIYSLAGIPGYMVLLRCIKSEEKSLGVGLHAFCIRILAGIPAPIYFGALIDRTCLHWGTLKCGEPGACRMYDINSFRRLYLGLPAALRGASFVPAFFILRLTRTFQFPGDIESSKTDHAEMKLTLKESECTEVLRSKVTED

[3] = biological target: T1, ATP-binding cassette sub-family C member 3; assay: as §1

Measured: Activity

T1 sequence (O88563 whole entry): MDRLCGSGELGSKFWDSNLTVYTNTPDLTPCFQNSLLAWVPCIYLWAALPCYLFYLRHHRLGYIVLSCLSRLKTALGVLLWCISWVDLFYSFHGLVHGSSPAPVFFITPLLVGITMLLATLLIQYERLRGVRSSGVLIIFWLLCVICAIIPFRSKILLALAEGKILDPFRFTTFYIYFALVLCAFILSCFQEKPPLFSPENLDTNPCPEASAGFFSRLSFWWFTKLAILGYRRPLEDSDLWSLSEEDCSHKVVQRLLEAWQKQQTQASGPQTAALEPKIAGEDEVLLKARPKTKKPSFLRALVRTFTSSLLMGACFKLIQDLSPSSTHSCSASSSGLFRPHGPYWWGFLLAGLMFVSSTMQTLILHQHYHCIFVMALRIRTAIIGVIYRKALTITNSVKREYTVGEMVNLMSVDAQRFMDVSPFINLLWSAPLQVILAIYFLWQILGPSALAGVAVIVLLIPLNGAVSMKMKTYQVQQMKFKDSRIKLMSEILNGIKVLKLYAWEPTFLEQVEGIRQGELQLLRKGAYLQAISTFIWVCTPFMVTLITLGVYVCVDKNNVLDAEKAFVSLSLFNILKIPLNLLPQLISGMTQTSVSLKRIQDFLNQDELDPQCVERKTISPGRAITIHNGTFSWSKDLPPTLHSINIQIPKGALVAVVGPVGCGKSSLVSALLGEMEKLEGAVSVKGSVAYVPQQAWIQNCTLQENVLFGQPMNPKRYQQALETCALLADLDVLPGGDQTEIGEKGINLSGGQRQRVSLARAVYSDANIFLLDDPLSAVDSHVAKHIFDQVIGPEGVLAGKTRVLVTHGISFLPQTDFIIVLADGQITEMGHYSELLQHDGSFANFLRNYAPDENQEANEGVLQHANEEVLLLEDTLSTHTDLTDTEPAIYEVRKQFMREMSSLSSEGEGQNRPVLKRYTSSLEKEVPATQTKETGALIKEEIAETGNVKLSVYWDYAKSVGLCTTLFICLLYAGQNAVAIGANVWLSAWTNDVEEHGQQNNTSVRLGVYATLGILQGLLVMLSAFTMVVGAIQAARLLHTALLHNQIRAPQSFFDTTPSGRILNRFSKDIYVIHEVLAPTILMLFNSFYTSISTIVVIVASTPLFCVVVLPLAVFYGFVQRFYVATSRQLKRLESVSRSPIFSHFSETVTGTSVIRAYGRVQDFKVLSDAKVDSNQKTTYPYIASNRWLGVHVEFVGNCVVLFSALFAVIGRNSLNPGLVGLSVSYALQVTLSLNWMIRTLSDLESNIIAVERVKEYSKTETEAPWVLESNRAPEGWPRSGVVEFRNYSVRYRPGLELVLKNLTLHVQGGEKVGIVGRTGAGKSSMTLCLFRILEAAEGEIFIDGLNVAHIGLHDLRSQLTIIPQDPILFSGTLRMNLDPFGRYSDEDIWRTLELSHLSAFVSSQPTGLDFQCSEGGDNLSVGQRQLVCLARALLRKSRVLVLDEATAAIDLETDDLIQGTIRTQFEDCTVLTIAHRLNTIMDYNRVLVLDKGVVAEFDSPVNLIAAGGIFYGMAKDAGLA

c1cnc2c(c1)ccc1ncccc12
inducer []: all assays above
